This is an account of results in patent publication US7629002B2, “Antimicrobial polymeric compositions and method of treatment using them” (Chemeq Ltd., priority 2000, dated 2009).

For series [1] the following is noted: in vivo.
Excerpt: Chickens treated each of the antimicrobials were compared with a control group according to the following procedure:
In each trial 20 Cob chickens (Line 53), day old were purchased from a commercial hatchery. They were weighed, sexed and randomly assigned into adjacent pens in a room of an isolated animal house. There was an even distribution of male and female chickens. Water and feed were available ad libitum. The diet was a commercial crumble (Chick Starter, Milne Feeds: 18% crude protein) with a coccidiostat present (125 ppm Dinitolomide).
Ten chickens were administered the formulation of 0.1% w/w of normally activated antimicrobial from Example 10a in the water for 14 days through static drinkers; dose rate of 30 mg/kg/day. The other ten chickens were the Control Group.
Both groups of chickens were weighed on days 0, 4, 7, 11 and 14. At the completion of the trial all chickens were euthanised, and the treated chickens were autopsied post mortem. A thorough gross examination of the thoracic and abdominal cavities was performed.
The subject of series [2] is C. albicans. Kind of series: MKC of preservatives and synergy (Example 14). It counts as cell-based. The following applies: polymer 0.2% w/w, mix as ratio. On the procedure:
(§1) Overnight broths of challenge cultures were prepared and the Total Viable Count (TVC) of the overnight cultures was estimated.
(§2) The samples were serially diluted 1 to 1 using sterile normal saline (5 mL). Sterile Hard Water (SHW) was used as diluent when testing samples containing EDTA.
(§3) 1 part of each overnight culture was diluted in 9 parts diluent. The resulting diluted suspensions were used as the inocula.
(§4) Inoculate each sample dilution with 100 μL of the diluted overnight culture. (One culture per tube). Mix well.
(§5) The tubes were incubated for ≦24 hours at 37° C. (A. niger was incubated at 28° C. for ≦24 hours).
(§6) From each test tube, 1 mL was subcultured into 9 mL of recovery broth and mixed well (Recovery Broths: Nutrient Broth+3% Tween 80 (NBT) for polymeric antimicrobial and EDTA; Nutrient Broth+3% Tween 80+(NBTA) for glutaraldehyde and, Letheen Broth (LB) for methyl parabens).
(§7) The samples incubated at 37° C. for a further ≦48 hours. (28° C. for ≦5 days for A niger).
(§8) Each tube was examined for growth. All tubes were then subcultured onto selective agar and incubated for ≦24 hours at 37° C. (28° C. for ≦5 days for A. niger). Growth on selective agar was taken to confirm growth of the test organism.

Series [3] has as its system A. niger. Kind of series: MKC of preservatives and synergy (Example 14). The series is classed as cell-based. The settings on record: polymer 0.2% w/w. The procedure:
as §1, §2, §3, §4, §5, §6, §7, §8

Series [4] has as its system S. aureus. Briefly: MKC of preservatives and synergy (Example 14). The series is classed as cell-based. The procedure: as §1, §2, §3, §4, §5, §6, §7, §8
Series [5] has as its system P. aeruginosa. Kind of series: MKC of preservatives and synergy (Example 14). It counts as cell-based. The procedure: as §1, §2, §3, §4, §5, §6, §7, §8
In series [6] the test system is E. coli. Kind of series: MKC of preservatives and synergy (Example 14). It counts as cell-based. The procedure: as §1, §2, §3, §4, §5, §6, §7, §8

As to “poly(2-propenal, 2-propenoic acid) [Example 10a]”, the “clinical or pathological signs of toxicity at gross examination post-mortem” value in series [1] is listed as “no clinical or pathological signs of toxicity were evident”.

With `O=CCCCC=O` [Glutaraldehyde], the MKC was 125 in series [2] (inoculum 3.0 × 10^6 cfu/mL, Glutaraldehyde 0.025% w/w); greater than 250 in series [3] (inoculum 3.3 × 10^7 cfu/mL, Glutaraldehyde 0.025% w/w start solutions, mix as ratio polymeric antimicrobial:preservative); 7 in series [4] (inoculum 1.5 × 10^9 cfu/mL, polymer 0.025% w/w, Glutaraldehyde 0.025% w/w); 31 in series [5] (inoculum 1.9 × 10^9 cfu/mL, polymer 0.025% w/w, Glutaraldehyde 0.025% w/w); 3.5 in series [6] (inoculum 1.6 × 10^9 cfu/mL, polymer 0.025% w/w, Glutaraldehyde 0.025% w/w).

Regarding `COC(=O)c1ccc(O)cc1` [Methyl Paraben], the MKC in series [2] (inoculum 1.1 × 10^7 cfu/mL, Methyl Paraben 1% w/w, in 80% w/w glycerol) is reported as 1250; in series [3] (inoculum 2.2 × 10^7 cfu/mL, Methyl Paraben 1% w/w, in 80% w/w glycerol, mix as ratio) it was 10000; in series [4] (inoculum 1.3 × 10^9 cfu/mL, polymer 0.2% w/w, Methyl Paraben 1% w/w, in 80% w/w glycerol, mix as ratio), 2500; in series [5] (inoculum 1.8 × 10^9 cfu/mL, polymer 0.2% w/w, Methyl Paraben 1% w/w, in 80% w/w glycerol, mix as ratio), 1250; in series [6] (inoculum 9.6 × 10^8 cfu/mL, polymer 0.2% w/w, Methyl Paraben 1% w/w, in 80% w/w glycerol, mix as ratio), 2500.

Regarding `O=C(O)CN(CCN(CC(=O)O)CC(=O)O)CC(=O)O` [EDTA], the MKC in series [2] (inoculum 3.2 × 10^6 cfu/mL, EDTA 0.1% w/w) is 1000; in series [3] (inoculum 3.0 × 10^7 cfu/mL, EDTA 0.1% w/w, mix as ratio polymeric antimicrobial:preservative), greater than 1000; in series [4] (inoculum 1.3 × 10^9 cfu/mL, polymer 0.2% w/w, EDTA 0.1% w/w, mix as ratio), greater than 1000; in series [5] (inoculum 9.4 × 10^8 cfu/mL, polymer 0.2% w/w, EDTA 0.1% w/w, mix as ratio) it was 1000; in series [6] (inoculum 1.0 × 10^9 cfu/mL, polymer 0.2% w/w, EDTA 0.1% w/w, mix as ratio), greater than 1000.
